Reference: PMC10604990, “Characterization and Investigation of Novel Benzodioxol Derivatives as Antidiabetic Agents: An In Vitro and In Vivo Study in an Animal Model” (Biomolecules, 2023)
Like-named read-outs stand apart in the source and are kept apart here.

Columns and labels:
Hep3B = test: MTS cytotoxicity assay, Hep3B; assay type: cell-based; details: 72 h
Description: (§1) Cultivation of the cancer cell lines MCF-7, Hep3B, HepG2, and Caco-2 HeLa was conducted in RPMI 1640 medium, whereas LX-2, B16-F1, and HEK-293T cells were grown in DMEM medium. These cells were incubated at 37 °C in a 5% CO2 atmosphere within a humid setting. In a 96-well plate, 1000 cells were seeded in each well. Following a 24 h incubation, they were exposed to various concentrations of Ia-IIe compounds (300, 100, 50, and 10 µM) for 72 h. The Cell-Tilter 96® (Promega Corporation, Madison, WI, USA) Aqueous One Solution Cell Proliferation (MTS) bioassay was utilized to determine the cell viability post-culture. For this assay, 90 µL of medium and 10 µL of MTS solution were added to every well, and the plates were then placed in a 37 °C environment for 2 to 4 h. The absorbance was subsequently assessed at a wavelength of 490 nm using a UV–Vis spectrophotometer.

HeLa = test: MTS cytotoxicity assay, HeLa; assay type: cell-based; details: 72 h
Description: as §1

Hek293t normal cell line = test: MTS cytotoxicity assay, Hek293t normal cell line; assay type: cell-based; details: 72 h
Description: as §1

LX-2 = test: MTS cytotoxicity assay, LX-2; assay type: cell-based
Description: as §1

α-amylase [1] = target: T1, α-amylase (Homo sapiens, UniProt P04746); test: α-amylase inhibition, DNSA method; assay type: biochemical
T1 sequence (P04746 16-511): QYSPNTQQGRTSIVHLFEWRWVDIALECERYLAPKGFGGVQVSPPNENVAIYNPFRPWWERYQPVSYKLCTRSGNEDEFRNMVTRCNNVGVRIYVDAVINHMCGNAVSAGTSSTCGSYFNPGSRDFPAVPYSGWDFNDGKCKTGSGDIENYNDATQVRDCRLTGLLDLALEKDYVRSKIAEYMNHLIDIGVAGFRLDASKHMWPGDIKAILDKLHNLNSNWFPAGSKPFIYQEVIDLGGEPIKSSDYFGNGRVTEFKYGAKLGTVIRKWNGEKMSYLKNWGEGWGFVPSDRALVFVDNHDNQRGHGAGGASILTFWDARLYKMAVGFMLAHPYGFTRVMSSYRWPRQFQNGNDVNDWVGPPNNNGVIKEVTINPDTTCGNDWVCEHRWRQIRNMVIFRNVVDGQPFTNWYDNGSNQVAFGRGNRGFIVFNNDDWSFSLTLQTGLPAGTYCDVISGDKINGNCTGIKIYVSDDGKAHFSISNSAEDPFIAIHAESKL
Description: The experiment was conducted using the 3,5-dinitrosalicylic acid (DNSA) approach. Buffer solutions were prepared, containing 20 mm of both sodium phosphate monobasic and sodium phosphate dibasic, and were augmented with 6.7 mm sodium chloride (NaH2PO4 and Na2HPO4, each at 6.7 mm NaCl, pH 6.9). A beaker was filled partially with NaH2PO4 and NaCl solution and stirred magnetically, and the pH was meticulously calibrated using a specialized electrode. The desired pH of 6.9 was achieved by adding more NaH2PO4 and NaCl to the solution.
The stock solution consisted of synthesized molecules at a 1 mg/mL concentration, harmoniously blended with no less than 10% DMSO in a 1:100 dilution. This mixture was then united with a buffer composed of Na2HPO4/NaH2PO4 (0.02 M) and NaCl (0.006 M), maintaining a pH of 6.9. From this, working solutions were created at concentrations ranging from 0.1 to 100 µM. These comprised 0.01, 0.1, 0.5, 1, and 5 mL of the synthesized molecules diluted with the pH-adjusted buffer and brought to a total volume of 10 mL using VF (10 mL).
This transformative amalgam journeyed to attain a final volume of 100 mL, seamlessly infused with the phosphate buffer discussed earlier, harmonizing within a 100 mL volumetric flask (VF). Meanwhile, the starch solution, poised at a concentration of 1% (w/v), saw the suspension of 1000 mg of starch in 100 mL of distilled water, orchestrated with finesse within a 100 mL VF. This aqueous symphony unfolded in a temperate embrace of 37 °C within a water bath, occasionally stirring to deter any starch precipitation inklings.
The overture of this reaction was orchestrated by DNSA—a reactive virtuoso that commences its dance upon encountering reducing sugars, conjuring forth 3-amino-5-nitro salicylic acid, a spectral charmer at the wavelength of around 540 nm. The creation of DNSA itself, an artful process, saw the dissolution of 12 g of sodium potassium tartrate tetrahydrate within 8.0 mL of 2 M NaOH, further entwined with 20 mL of the enchanted 96 mm 3.5-dinitrosalicylic acid solution. Thus, the stage was set for this chemical ballet, where reactions waltzed, and absorbance painted a canvas of molecular magic. […]
The climax of this reaction narrative was unveiled as 200 μL of DNSA entered the stage, promptly followed by a vigorous boiling performance for 10 min, orchestrated at the harmonious temperature range of 85 to 90 °C. […] In a final crescendo, the resounding absorbance at 540 nm resounded as it was masterfully measured utilizing the UV-Visible spectrophotometer.
In order to produce the initial state, the blank canvas was used to substitute the synthesized chemicals, adding 200 μL of buffer. […] This captivating performance culminated with quantifying enzyme inhibitory activity expressed as a percentage of inhibition. […]

MCF-7 = test: MTS cytotoxicity assay, MCF-7; assay type: cell-based
Description: as §1

Caco-2 = test: MTS cytotoxicity assay, Caco-2; assay type: cell-based
Description: as §1

HepG2 = test: MTS cytotoxicity assay, HepG2; assay type: cell-based
Description: as §1

cancer cell lines = test: MTS cytotoxicity assay, range over cell lines; assay type: cell-based
Description: as §1

α-amylase [2] = target: T1, α-amylase; details: cited from earlier work
[3] = system: streptozotocin-induced diabetic mice; test: In vivo hypoglycemic effect in STZ-induced diabetic mice; details: five daily i.p. doses of 10 mg/kg, fasting, 252.2 mg/dL before treatment, untreated diabetes group 274.25 mg/dL
Description: The mice-related investigations were meticulously conducted, adhering strictly to the protocols outlined by the Association for Assessment and Accreditation of Laboratory Animal Care International. The ethical underpinning of these experiments was formally acknowledged, having secured the approval of the Institutional Review Board of the Animal House and Use Committee at An-Najah National University (approval number: Med. June. 2023/9).
The study’s protagonists consisted of 18 healthy adult mice gracing the stage with a weight symphony ranging from 17 to 27 g. These cherished participants were thoughtfully accommodated in groups of three within the hospitable confines of the animal facility. In an overture of preparation, the mice were granted 7 days to acquaint themselves with the ambiance of the animal facility, enveloped within the embrace of controlled temperature conditions, a harmonious 25 ± 2 °C.
In the experiment, the mice were subjected to diabetes induction via an intraperitoneal (i.p.) injection of streptozotocin (STZ). […] In order to ascertain the induction of diabetes, the fasting blood glucose levels of the mice were assessed on the fourth day after the injection of STZ. […]
In this research, the fasting blood glucose levels for all groups were measured on the first day before the induction of diabetes using a streptozotocin (STZ) injection. […]

α-amylase [4] = target: T1, α-amylase; details: control compound IIe; cited from earlier work

SMILES	IC50 (Hep3B; Homo sapiens, Hep3B)	IC50 (HeLa; Homo sapiens, HeLa)	IC50 (Hek293t normal cell line; Homo sapiens, HEK-293T)	IC50 (LX-2; Homo sapiens, LX-2, 72 h)	IC50 (MCF-7; Homo sapiens, MCF7, 72 h)	IC50 (Caco-2; Homo sapiens, Caco-2, 72 h)	IC50 (HepG2; Homo sapiens, HepG2, 72 h)	also measured
O=C(Nc1ccccc1)c1ccc2c(c1)OCO2 [IIa, N-phenylbenzo[d][1,3]dioxole-5-carboxamide]	> 300 µM	> 300 µM	> 150 µM	> 300 µM	> 300 µM	> 300 µM	> 300 µM	IC50 (Hek293t normal cell line): > 300 µM; IC50 (α-amylase [1]): 0.85 ± 0.18 µM
COc1ccccc1Oc1ccc(NC(=O)c2ccc3c(c2)OCO3)cc1 [IId, N-(4-(2-methoxyphenoxy)phenyl)benzo[d][1,3]dioxole-5-carboxamide]	65.2 ± 2.53 µM	26.6 ± 2.41 µM	> 300 µM	31.4 ± 2.71 µM	55.8 ± 2.51 µM	> 300 µM	55.3 ± 2.72 µM	IC50 (α-amylase [1]): 5.76 ± 1.92 µM; IC50 (cancer cell lines; Homo sapiens, Caco-2, four cancer cell lines / all cell lines except Caco-2): 26 to 65 µM; IC50 (cancer cell lines; four cancer cell lines / all cell lines except Caco-2): 26.6 to 65.2 µM
O=C(Cc1ccc2c(c1)OCO2)Nc1ccccc1 [Ib, 2-(benzo[d][1,3]dioxol-5-yl)-N-phenylacetamide]	> 300 µM	> 300 µM	269.2 ± 1.73 µM	280.6 ± 2.33 µM	> 300 µM	> 300 µM	> 300 µM	–
COc1cc(OC)cc(C(=O)c2ccc3c(c2)OCO3)c1 [St.3]	–	–	–	–	–	–	–	IC50 (α-amylase [2]; earlier work of the same team): 15 µM
COc1ccc(OC)c(NC(=O)Cc2ccc3c(c2)OCO3)c1 [Ic, 2-(benzo[d][1,3]dioxol-5-yl)-N-(2,5-dimethoxyphenyl)acetamide]	> 300 µM	> 300 µM	207 ± 2.59 µM	209 ± 2.2 µM	> 300 µM	> 300 µM	> 300 µM	IC50 (α-amylase [1]): 16.4 ± 1.58 µM
O=C(Nc1cccc(C(F)(F)F)c1)c1ccc2c(c1)OCO2 [IIc, N-(3-(trifluoromethyl)phenyl)benzo[d][1,3]dioxole-5-carboxamide]	> 300 µM	> 300 µM	> 150 µM	> 300 µM	> 300 µM	> 300 µM	> 300 µM	IC50 (Hek293t normal cell line): 156 ± 2.98 µM; blood glucose level after treatment [3]: 173.8 mg/dL
N#C/C=C1/C=C(c2ccc(Br)cc2)N=C2Sc3ccccc3N21 [St.1]	–	–	–	–	–	–	–	IC50 (α-amylase [2]): 15.3 µM
COc1cc(NC(=O)c2ccc3c(c2)OCO3)cc(OC)c1 [IIe, N-(3,5-dimethoxyphenyl)benzo[d][1,3]dioxole-5-carboxamide]	> 300 µM	> 300 µM	> 300 µM	183 ± 2 µM	> 300 µM	> 300 µM	> 300 µM	IC50 (α-amylase [4]): 15 ± 3.52 µM
COc1cc(NC(=O)Cc2ccc3c(c2)OCO3)c(OC)cc1Cl [Ia, 2-(benzo[d][1,3]dioxol-5-yl)-N-(4-chloro-2,5-dimethoxyphenyl)acetamide]	197 ± 1.99 µM	43.6 ± 2.97 µM	> 300 µM	70.6 ± 2.45 µM	124 ± 2.73 µM	> 300 µM	169 ± 2.16 µM	IC50 (α-amylase [1]): 16.8 ± 1.55 µM
COc1cc(NC(=O)c2ccc3c(c2)OCO3)cc(OC)c1OC [IIb, N-(3,4,5-trimethoxyphenyl)benzo[d][1,3]dioxole-5-carboxamide]	> 300 µM	> 300 µM	> 300 µM	96.6 ± 2.7 µM	> 300 µM	> 300 µM	> 300 µM	–
COC(=O)Cc1cc2c(cc1C(=O)c1ccccc1Br)OCO2 [St.2]	–	–	–	–	–	–	–	IC50 (α-amylase [2]; earlier work of the same team): 6.81 µM
O=c1[nH]cc(F)c(=O)[nH]1 [Compound 5-FU, reference compound]	–	–	–	–	–	–	–	IC50 (Hep3B): 5.11 ± 1.67 µM; IC50 (HeLa): 7.79 ± 1.6 µM; IC50 (LX-2; 72 h): 0.178 ± 0.11 µM; IC50 (MCF-7; 72 h): 6.51 ± 1.82 µM; IC50 (Caco-2; 72 h): 4.75 ± 1.71 µM; IC50 (HepG2; 72 h): 4.07 ± 1.42 µM
COc1cccc2c1C(=O)c1c(O)c3c(c(O)c1C2=O)C[C@@](O)(C(=O)CO)C[C@@H]3O[C@H]1C[C@H](N)[C@H](O)[C@H](C)O1 [DOX, reference compound]	–	–	–	–	–	–	–	IC50 (Hep3B): 0.025 ± 0.005 µM; IC50 (HeLa): < 0.01 µM; IC50 (Hek293t normal cell line): 0.038 ± 0.02 µM; IC50 (LX-2; 72 h): 0.21 ± 0.12 µM; IC50 (MCF-7; 72 h): 0.053 ± 0.009 µM; IC50 (Caco-2; 72 h): 0.024 ± 0.001 µM; IC50 (HepG2; 72 h): < 0.01 µM
Oc1cc(O)cc(Oc2c(O)cc(Oc3c(O)cc(O)cc3O)cc2O)c1 [DDBT, 2-(4-(3,5-dihydroxyphenoxy)-3,5-dihydroxyphenoxy) benzene-1,3,5-triol]	–	–	–	–	–	–	–	IC50 (α-amylase [2]): 8.5 µM
